# Laboratory results published in ChEMBL document CHEMBL5385867, “2-Phenoxy-3, 4'-bipyridine derivatives inhibit AURKB-dependent mitotic processes by disrupting its localization” (Eur J Med Chem, 2023).
# Activity calls are given as the source filed them. The rule behind the calls is not given here.
# Experiments:
# [1] = Induction of mitotic arrest in human RPE-MYC cells transfected with BCL2 assessed as mitotic index at 2 ug/ml measured after 24 hrs by DAPI staining based bright field microscopic analysis (reference value: 3.5%); format: functional; conditions: dose 2 µg/ml
# RPE [2] = test: Inhibition of actin polymerization in human RPE-MYC cells transfected with BCL2 assessed as accumulation of polyploid cells with multilobular nuclei at 2 ug/ml measured after 48 hrs by immunofluorescence staining based analysis; format: cell-based; conditions: dose 2.0 µg/ml
# RPE [3] = test: Inhibition of actin polymerization in human RPE-MYC cells transfected with BCL2 assessed as chromosome misalignment in metaphase at 2 ug/ml measured after 24 hrs by immunofluorescence staining based analysis; format: cell-based; conditions: dose 2.0 µg/ml
# RPE [4] = test: Inhibition of actin polymerization in human RPE-MYC cells transfected with BCL2 assessed as lagging chromosomes in anaphase at 2 ug/ml measured after 24 hrs by immunofluorescence staining based analysis; format: cell-based; conditions: dose 2.0 µg/ml
# [5] = Induction of mitotic arrest in human RPE-MYC cells transfected with BCL2 assessed as mitotic index at 50 nM measured after 24 hrs by DAPI staining based bright field microscopic analysis (reference value: 3.5%); format: functional
# Tubulin (Homo sapiens) = Tubulin (Homo sapiens) (UniProt P68371+Q9H4B7+P0DPH7+P68366+Q13509+Q71U36+P04350+Q3ZCM7+P07437+P68363+Q9BQE3+Q6PEY2+Q13885+Q9BVA1+Q9BUF5); test: Stabilization of microtubule in human RPE-MYC cells transfected with BCL2 assessed as misaligned chromosomes in metaphase cells at 50 nM measured after 24 hrs by immunofluorescence staining based analysis; format: cell-based
Activity (Tubulin (Homo sapiens)),SMILES,Activity [1],inhibition (RPE [2]),inhibition (RPE [3]),inhibition (RPE [4]),Activity [5]
–,C=C1[C@@H](C)[C@H]2[C@H](Cc3ccccc3)NC(=O)[C@]23OC(=O)/C=C/[C@H](O)CCC[C@@H](C)C/C=C/[C@H]3[C@@H]1O [CYTOCHALASIN B],2.7%,Active,inactive,inactive,–
inactive,CC(=O)O[C@H]1C(=O)[C@@]2(C)[C@H]([C@H](OC(=O)c3ccccc3)[C@]3(O)C[C@H](OC(=O)[C@H](O)[C@@H](NC(=O)c4ccccc4)c4ccccc4)C(C)=C1C3(C)C)[C@]1(OC(C)=O)CO[C@@H]1C[C@@H]2O [PACLITAXEL],–,–,–,–,97.3%
